Patent US20250241862A1, “EXOSOMAL COMPOSITIONS INCLUDING ANESTHETICS” (THE BOARD OF TRUSTEES OF THE UNIVERSITY OF ALABAMA, priority 2024, published 2025)
Counter-ions that a name gives are not always drawn.

Tests used:
[1] = osmotic shock method; cited from earlier work
sciatic nerve [2] = test: Rat sciatic nerve block, neurobehavioral test (hot plate thermal latency, weight bearing); type: in vivo; conditions: for nerve block at injected site (observation): single sciatic nerve injection 0.3 mL
Description: Adult male Sprague-Dawley rats (Charles River Laboratories, Wilmington, MA) weighing 250-350 g were housed in groups, in a 6 am-6 pm light-dark cycle. Animals were cared for in accordance with protocols approved by the Institutional Animal Care and Use Committee of the University of Alabama (Protocol ID: 19-11-2992), and the Guide for the Care and Use of Laboratory Animals of the US National Research Council.
Nerve block injections were meticulously executed utilizing a 23-gauge needle, with rats being anesthetized under a combination of isoflurane and oxygen. […] Additionally, injections of free BUP were given at doses of 0.75 mg and 1.5 mg. A control group received an injection of 50 μg of empty exosomes. The injection technique involved positioning the needle posteromedially to the greater trochanter and directing it anteromedially. Upon making contact with the bone, the prepared solution was administered.
Subsequently, the rats underwent neurobehavioral test to determine the duration of functional deficits (i.e., sensory and motor nerve blockade) in both hind paws. The duration of deficits on the injected side (left, ipsilateral) reflected the duration of nerve block. Any deficits observed on the uninjected side (right, contralateral) were indicative of the systemic BUP distribution.
The efficacy of the nerve block was assessed at specified intervals using established methodologies. Sequentially, the left and then the right hind paws of the rats were subjected to a 56° C. hot plate (model 39D Hot Plate Analgesia meter; IITC Inc., Woodland Hills, CA). The duration until the paw was withdrawn, termed thermal latency, was meticulously recorded. […] Thermal latency serves as an indicator of analgesic potency. […] For a systemic effect baseline, latency was also gauged in the non-injected leg. The duration of the thermal nociceptive block was determined as the time taken for the thermal latency to revert from an elevated value to a baseline of 7 seconds. In adult rats, this 7-second threshold represents the median between the maximum block and the typical thermal latency, which is roughly 2 seconds, with the upper limit being 12 seconds. Motor function was evaluated by suspending the animal over a balance and recording the maximum weight the animal could bear. The duration of motor blockade was determined as the period until weight-bearing capacity returned to half of its normal level from the point of maximal block. For each rat, the halfway point was calculated as [(highest weight borne by either leg)−(lowest weight borne by the blocked leg)]/2+the lowest weight borne by the blocked leg.

sciatic nerve [3] = test: Sciatic nerve histology (toluidine blue) for neurotoxicity; type: in vivo, rat
Description: For nerve injury histology, samples underwent Epon-embedding and fixation using Karnovsky's KII Solution, which comprises 2.5% glutaraldehyde, 2.0% paraformaldehyde, and 0.025% calcium chloride in a 0.1 M sodium cacodylate buffer with a pH of 7.4. Subsequently, samples were post-fixed using osmium tetroxide, stained with uranyl acetate, and then dehydrated through a series of ethanol solutions. This was followed by infiltration with mixtures of propylene oxide and Epon. Sections, with a thickness of 0.5 μm, were then stained using toluidine blue, facilitating high-resolution light microscopy examination.
Epon-embedded sections of the sciatic nerve were stained with toluidine blue. […] Furthermore, when 2.5 mg free BUP was injected, 3 out of 4 tissues presented significant nerve degeneration, which is determined by the density decrease of nerve fibers within the nerve section (FIG. 6b).

[4] = test system: Creatine Kinase (CK-total, CK-MB) activity in serum; test: Serum creatine kinase activity (CK-total, CK-MB), cardiotoxicity; type: in vivo, rat; conditions: 48 hours after injection
Protocol: In another experiment, rats were euthanized at the 48-hour mark. Blood samples were meticulously collected through two methods: a cardiac puncture, which involves drawing blood directly from the heart, and a separate collection from the femoral artery. Once collected, the blood samples were subjected to centrifugation, a process that separates the serum from other blood components. The isolated serum was then analyzed for creatine kinase activity using a colorimetric assay kit for creatine kinase activity. The intensity was quantified using a plate-reader, an instrument that measures absorbance levels.
It is important to recognize that the side effects of BUP and other local anesthetics go beyond just localized tissue reactions. A major concern with administering BUP is its potential harmful cardiotoxic effects. This can be particularly severe in certain instances, such as arrhythmias and cardiac asystole. Cardiotoxicity can be observed through increased activity of Creatine Kinase(CK), an family of enzymes that is released into the blood in response to lesions in contractile fibers, serve as biochemical markers for muscle damage, including myocardial injury. Elevated activity levels of CK, especially its cardiomyocyte isoform—Creatine Kinase-Myocardial Band (CK-MB), can be a warning sign for serious outcomes such as cardiac arrhythmias, heart failure, and other cardiovascular complications.
Two types of samples were obtained: from the femoral artery and cardiac puncture. These samples were analyzed to evaluate the activity in serum of total CK (CK-total) and its cardiomyocyte isoform (CK-MB).

[5] = test system: muscle at the injection site; test: Muscle histology (H&E) inflammation and myotoxicity scoring; type: in vivo, rat
Description: Following euthanasia, the sciatic nerve and adjacent muscle tissues were meticulously extracted. Muscle specimens underwent processing to yield slides stained with hematoxylin and eosin. A macroscopic dissection score was assigned based on the following criteria: 0=tissue planes obvious and easily separated; 1=tissue planes obvious but separated with some difficulty; 2=tissue planes adherent and separated with some difficulty; 3=tissue planes completely obliterated, could not separate surrounding tissues from nerve without cutting through them. Muscle samples underwent evaluation for inflammation (on a scale of 0-4) and myotoxicity (on a scale of 0-6). The inflammation score was a subjective measure of its severity. The myotoxicity score was based on two hallmark features of local anesthetic-induced myotoxicity: nuclear internalization and regeneration. […] Regeneration manifests as contracted myocytes with basophilic cytoplasm. The scoring was as follows: 0=normal; 1=perifascicular internalization; 2=deep internalization (>5 cell layers), 3=perifascicular regeneration, 4=deep regeneration, 5=hemifascicular regeneration, 6=holofascicular regeneration.
The sciatic nerve and surrounding tissues were harvested, sectioned, and stained for histologic assessment. Muscle tissues were processed for hematoxylin-eosin (H&E) staining. The myotoxicity and inflammation were quantified using a previously reported scoring system (Table 1, Table 2).

[6] = In vitro release of BUP by dialysis; type: physicochemical; conditions: dialysis 8-10 kD, 1×PBS pH 7.4, 37° C.; free BUP at 0.5% (w/v) and saturated concentrations
Protocol: To assess the release kinetics of BUP from the BUP@EXO, a dialysis method was employed. Specifically, 1 mL of BUP@EXO, containing 5 mg BUP, was introduced into a Spectra/Por Float-A-Lyzer G2 dialysis bag with a molecular weight cutoff ranging from 8-10 kD (Spectrum Laboratories, Ranchodominguez, CA). This bag was then immersed in 20 mL of phosphate-buffered saline (PBS) with a pH of 7.4. The setup was maintained at 37° C. and subjected to continuous 200 rpm shaking. At specified time points, the dialysis bag was relocated to fresh 1×PBS to ensure a consistent concentration gradient. The concentration of BUP in the dialysate was ascertained by measuring its absorbance at 272 nm and referencing it against a pre-established standard curve. We collected the washout solutions (filtrate) in the lower chambers of centrifugal filters. Subsequently, these solutions underwent UV-Vis spectroscopy to determine the BUP concentration. The encapsulation efficiency is thereby calculated by
We conducted in-depth in vitro drug release kinetic analysis at 37° C. for our BUP@EXO formulations. 1 mL of BUP@EXO in 1×PBS, containing 5 mg BUP, was introduced into a dialysis bag with a molecular weight cutoff ranging from 8-10 kD. The dialysis bag was then immersed in 20 mL of 1×PBS with a pH of 7.4. The setup was maintained at 37° C. and subjected to continuous shaking of 200 rpm. […]

Compound: CC(=O)CCCCn1c(=O)c2c(ncn2C)n(C)c1=O [pentoxifylline]
- encapsulation efficiency (drug per protein-equivalent exosomes) [1]: 0.85 μg of drug per μg of protein-equivalent exosomes

Compound: CCCCN1CCCCC1C(=O)Nc1c(C)cccc1C (stereo not shown) [free BUP, Bupivacaine Hydrochloride]
- success rate of nerve blockade (sciatic nerve [2]; 0.75 mg BUP equivalent): 0%
- contralateral nerve blockade (systemic distribution) (sciatic nerve [2]; 0.75 mg BUP equivalent, uninjected side): no contralateral nerve blockade
- nerve block at injected site (observation) (sciatic nerve [2]; 0.75 mg BUP in PBS): neither a detectable nerve block nor toxicity
- duration of motor blockade (sciatic nerve [2]; 1.5 mg BUP equivalent): 0.458 ± 0.176 h
- duration of sensory nerve blockade (sciatic nerve [2]; 1.5 mg BUP equivalent): 1.833 ± 0.250 h
- contralateral nerve blockade (systemic distribution) (sciatic nerve [2]; 1.5 mg BUP equivalent, uninjected side): no contralateral nerve blockade
- nerve block at injected site (observation) (sciatic nerve [2]; 1.5 mg BUP in PBS): successfully induced nerve block at the injected sites in all animals
- occurrence of drowsiness (sciatic nerve [2]; 2.5 mg BUP): 3 out of 4 animals
- duration of motor blockade (sciatic nerve [2]; 2.5 mg BUP equivalent): 2.12 ± 0.54 h
- duration of sensory nerve blockade (sciatic nerve [2]; 2.5 mg BUP equivalent): 2.75 ± 0.43 h
- contralateral sensory nerve blockade (systemic distribution) (sciatic nerve [2]; 2.5 mg BUP equivalent, uninjected side): 3 out of 4 animals
- contralateral thermal latency (sciatic nerve [2]; 2.5 mg BUP, uninjected side, 56° C. hot plate): ~7 s
- tissues with signs of neurotoxicity (sciatic nerve [3]; 1.5 mg, 48 hours): 1 out of 4
- tissues with significant nerve degeneration (sciatic nerve [3]; 2.5 mg): 3 out of 4
- Creatine Kinase activity profiles (CK-total, CK-MB) vs blank control ([4]; 0.75 mg): did not result in significant alteration
- CK activity vs blank control ([4]; 1.5 mg): considerable elevation in CK activity
- CK activity vs blank control ([4]; 2.5 mg): considerable elevation in CK activity
- myotoxicity score (scale 0-6) ([5]; 1.5 mg, 4 days, 1 of 4 rats): 2
- inflammation score (out of 4) ([5]; 2.5 mg, 48 hours): up to 3
- myotoxicity score (out of 6) ([5]; 2.5 mg, 48 hours): up to 3
- cumulative release within initial 5-hour period [6]: near-complete cumulative release
